From patent publication US8580811B2 (Ligand Pharmaceuticals Incorporated, priority 2005, dated 2013)

Target: T1, human AR (Homo sapiens, UniProt P10275)
T1 construct: expressed in transfected cells; host or cells: COS-1 cells
T1 sequence (P10275 1-920): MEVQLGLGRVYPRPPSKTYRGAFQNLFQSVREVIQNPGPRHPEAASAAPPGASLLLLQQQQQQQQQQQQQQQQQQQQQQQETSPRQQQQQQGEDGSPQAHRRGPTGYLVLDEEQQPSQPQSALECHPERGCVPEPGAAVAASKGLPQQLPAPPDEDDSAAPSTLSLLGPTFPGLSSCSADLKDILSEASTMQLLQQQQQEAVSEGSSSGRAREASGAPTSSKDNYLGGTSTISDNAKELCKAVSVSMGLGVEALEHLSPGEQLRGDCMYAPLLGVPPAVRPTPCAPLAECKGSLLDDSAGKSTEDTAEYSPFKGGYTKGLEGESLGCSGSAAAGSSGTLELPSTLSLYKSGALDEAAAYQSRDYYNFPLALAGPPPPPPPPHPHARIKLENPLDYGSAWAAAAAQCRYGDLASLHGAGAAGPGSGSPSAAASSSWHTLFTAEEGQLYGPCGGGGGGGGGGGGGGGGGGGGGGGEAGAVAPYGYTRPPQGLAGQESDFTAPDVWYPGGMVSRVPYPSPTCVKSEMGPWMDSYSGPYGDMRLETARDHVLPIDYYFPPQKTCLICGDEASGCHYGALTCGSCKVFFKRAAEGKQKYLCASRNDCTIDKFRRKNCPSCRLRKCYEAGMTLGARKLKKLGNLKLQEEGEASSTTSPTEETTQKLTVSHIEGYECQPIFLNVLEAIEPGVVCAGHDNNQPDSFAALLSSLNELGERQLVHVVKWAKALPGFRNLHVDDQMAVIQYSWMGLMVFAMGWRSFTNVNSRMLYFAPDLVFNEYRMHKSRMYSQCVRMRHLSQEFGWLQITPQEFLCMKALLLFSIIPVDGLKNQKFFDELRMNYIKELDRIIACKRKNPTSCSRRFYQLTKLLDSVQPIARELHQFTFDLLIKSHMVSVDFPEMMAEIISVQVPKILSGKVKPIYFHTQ
Experiment: IR Binding Assay: whole cell competitive binding of test compounds against 3H-DHT in COS-1 cells transfected with pRShAR
Procedure, shortened: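 COS-1 cells transfected with pRShAR plus β-Gal reporter, serum-starved 24 h, then exposed to 1 nM ³H-DHT with compounds at 10^−10 to 10^−6 M for 3 h at 37 °C. Bound ³H-DHT counted in lysates, normalized to β-Gal. IC50 from log-logit plot; Ki via Cheng-Prusoff using Kd from Scatchard saturation analysis.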

SMILES | Ki
Cc1c(-c2ccccn2)n(CC(F)(F)C(F)(F)F)c2ccc3[nH]c(=O)cc(Cl)c3c12 [Compound 265, 9-Chloro-1-methyl-3-(2,2,3,3,3-pentafluoropropyl)-2-(2-pyridyl)-3,6-dihydro-pyrrolo[3,2-f]quinolin-7-one] | < 5 nM
CCc1c(-c2ccccc2)n(CC(F)(F)F)c2ccc3[nH]c(=O)cc(Cl)c3c12 [Compound 203, 9-Chloro-1-ethyl-2-phenyl-3-(2,2,2-trifluoroethyl)-3,6-dihydro-pyrrolo[3,2-f]quinolin-7-one] | < 5 nM
Cc1c(-c2cccnc2)n(CC(F)(F)F)c2ccc3[nH]c(=O)cc(Cl)c3c12 [Compound 253, 9-Chloro-1-methyl-2-(3-pyridyl)-3-(2,2,2-trifluoroethyl)-3,6-dihydro-pyrrolo[3,2-f]-quinolin-7-one] | > 10 nM
CC1CN(CC(F)(F)F)c2ccc3[nH]c(=O)cc(Cl)c3c21 (racemic) [Compound 132, (±)-9-Chloro-1-methyl-3-(2,2,2-trifluoro-ethyl)-1,2,3,6-tetrahydro-pyrrolo[3,2-f]quinolin-7-one] | < 5 nM
Cc1c(CO)n(CC(F)(F)F)c2ccc3[nH]c(=O)cc(C(F)(F)F)c3c12 [Compound 235, 2-Hydroxymethyl-1-methyl-3-(2,2,2-trifluoro-ethyl)-9-trifluoromethyl-3,6-dihydro-pyrrolo[3,2-f]-quinolin-7-one] | > 10 nM
Cc1c(C)n(C[C@H](O)C(F)(F)F)c2ccc3[nH]c(=O)cc(C(F)(F)F)c3c12 [Compound 245, (−)-1,2-Dimethyl-3-(3,3,3-trifluoro-2-hydroxy-propyl)-9-trifluoromethyl-3,6-dihydro-pyrrolo[3,2-f]-quinolin-7-one] | > 10 nM
CCN1c2ccc3[nH]c(=O)cc(Cl)c3c2C(C)C1C (racemic) [Compound 135, (±)-9-Chloro-1,2-dimethyl-3-ethyl-1,2,3,6-tetrahydro-pyrrolo[3,2-f]quinolin-7-one] | 5 to 10 nM
CCc1c(C)c2c3c(C(F)(F)F)cc(=O)[nH]c3ccc2n1CCCO [Compound 286] | < 5 nM
Cc1c(-c2cccnc2)n(CC(F)(F)C(F)(F)F)c2ccc3[nH]c(=O)cc(Cl)c3c12 [Compound 264, 9-Chloro-1-methyl-3-(2,2,3,3,3-pentafluoropropyl)-2-(3-pyridyl)-3,6-dihydro-pyrrolo[3,2-f]quinolin-7-one] | < 5 nM
O=c1cc(C(F)(F)F)c2c(ccc3c2c2c(n3CC(O)C(F)(F)F)CCC2)[nH]1 (racemic) [Compound 246, (±)-3-(3,3,3-Trifluoro-2-hydroxy-propyl)-9-trifluoromethyl-1,2-trimethylene-3,6-dihydro-pyrrolo[3,2-f]quinolin-7-one] | 5 to 10 nM
CC1c2c(cc(F)c3[nH]c(=O)cc(Cl)c23)N(CC(F)(F)F)C1C (racemic) [Compound 151, (±)-9-Chloro-1,2-dimethyl-5-fluoro-3-(2,2,2-trifluoro-ethyl)-1,2,3,6-tetrahydro-pyrrolo[3,2-f]quinolin-7-one] | < 5 nM
Cc1c(-c2ccccc2)[nH]c2ccc3[nH]c(=O)cc(Cl)c3c12 [Compound 110, 9-Chloro-1-methyl-2-phenyl-3,6-dihydro-pyrrolo[3,2-f]quinolin-7-one] | < 5 nM
Cc1c[nH]c2ccc3[nH]c(=O)cc(Cl)c3c12 [Compound 114, 9-Chloro-1-methyl-3,6-dihydro-pyrrolo[3,2-f]quinolin-7-one] | > 10 nM
CCc1c(C)c2c3c(Cl)cc(=O)[nH]c3ccc2n1CC(F)(F)Cl [Compound 222, 9-Chloro-3-(2-chloro-2,2-difluoroethyl)-2-ethyl-1-methyl-3,6-dihydro-pyrrolo[3,2-f]-quinolin-7-one] | < 5 nM
Cc1c(C(F)(F)F)[nH]c2ccc3[nH]c(=O)cc(Cl)c3c12 [Compound 108, 9-Chloro-1-methyl-2-trifluoromethyl-3,6-dihydro-pyrrolo[3,2-f]quinolin-7-one] | < 5 nM
Cc1c(C)n(CCO)c2ccc3[nH]c(=O)cc(Cl)c3c12 [Compound 190, 9-Chloro-3-(2-hydroxy-ethyl)-1,2-dimethyl-3,6-dihydro-pyrrolo[3,2-f]quinolin-7-one] | > 10 nM
Cc1c(C)n(CC(F)(F)C(F)(F)F)c2ccc3[nH]c(=O)cc(Cl)c3c12 [Compound 215, 9-Chloro-1,2-dimethyl-3-(2,2,3,3,3-pentafluoropropyl)-3,6-dihydro-pyrrolo[3,2-f]-quinolin-7-one] | < 5 nM
Cc1cn(CC(F)(F)F)c2ccc3[nH]c(=O)cc(Cl)c3c12 [Compound 211, 9-Chloro-1-methyl-3-(2,2,2-trifluoroethyl)-3,6-dihydro-pyrrolo[3,2-f]quinolin-7-one] | 5 to 10 nM
